Several values for one entry are separate records, joined by “and”; a condition that tells them apart may be missing. Equal values may be shown once. Read-outs that look alike come from different tables or passages of the source.
Legend:
[1] = biological target: T1, PI3Kγ (Homo sapiens, UniProt P48736); assay: Biochemical assay using 200 μM ATP, Gamma
T1 construct: His tag (pFastbac HTb vector) (N); FLAG (N); made in house; host or cells: Sf21 insect cells (baculovirus)

[2] = system: human neutrophils; assay: Elastase exocytosis from neutrophils (fMLP-induced); type: cell-based; conditions: neutrophil (PMN) elastase release
Outline: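 Human blood neutrophils (Ficoll-Hypaque) treated with compound or DMSO, then stimulated 90 min at 37 °C with 1 μM fMLP plus 0.01 mg/mL cytochalasin B, 1.0 μM NaN3 and 5 μg/mL L-methionine. Supernatant elastase read at 410 nm over 2 h on MeO-suc-AAPV-pNA, normalized to uninhibited; EC50 in μM.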

[3] = biological target: T2, PI3Kδ (Homo sapiens, UniProt O00329, S253N); assay: Biochemical assay using 200 μM ATP, Delta;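 also: radiometric filter-binding assay: PI3Kδ transfers ³²P from γ-[³²P]ATP onto PIP2/PS liposomes, counted by scintillation, enzyme-only wells as positive control, no-enzyme wells as background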
T2 sequence (O00329 whole entry S253N): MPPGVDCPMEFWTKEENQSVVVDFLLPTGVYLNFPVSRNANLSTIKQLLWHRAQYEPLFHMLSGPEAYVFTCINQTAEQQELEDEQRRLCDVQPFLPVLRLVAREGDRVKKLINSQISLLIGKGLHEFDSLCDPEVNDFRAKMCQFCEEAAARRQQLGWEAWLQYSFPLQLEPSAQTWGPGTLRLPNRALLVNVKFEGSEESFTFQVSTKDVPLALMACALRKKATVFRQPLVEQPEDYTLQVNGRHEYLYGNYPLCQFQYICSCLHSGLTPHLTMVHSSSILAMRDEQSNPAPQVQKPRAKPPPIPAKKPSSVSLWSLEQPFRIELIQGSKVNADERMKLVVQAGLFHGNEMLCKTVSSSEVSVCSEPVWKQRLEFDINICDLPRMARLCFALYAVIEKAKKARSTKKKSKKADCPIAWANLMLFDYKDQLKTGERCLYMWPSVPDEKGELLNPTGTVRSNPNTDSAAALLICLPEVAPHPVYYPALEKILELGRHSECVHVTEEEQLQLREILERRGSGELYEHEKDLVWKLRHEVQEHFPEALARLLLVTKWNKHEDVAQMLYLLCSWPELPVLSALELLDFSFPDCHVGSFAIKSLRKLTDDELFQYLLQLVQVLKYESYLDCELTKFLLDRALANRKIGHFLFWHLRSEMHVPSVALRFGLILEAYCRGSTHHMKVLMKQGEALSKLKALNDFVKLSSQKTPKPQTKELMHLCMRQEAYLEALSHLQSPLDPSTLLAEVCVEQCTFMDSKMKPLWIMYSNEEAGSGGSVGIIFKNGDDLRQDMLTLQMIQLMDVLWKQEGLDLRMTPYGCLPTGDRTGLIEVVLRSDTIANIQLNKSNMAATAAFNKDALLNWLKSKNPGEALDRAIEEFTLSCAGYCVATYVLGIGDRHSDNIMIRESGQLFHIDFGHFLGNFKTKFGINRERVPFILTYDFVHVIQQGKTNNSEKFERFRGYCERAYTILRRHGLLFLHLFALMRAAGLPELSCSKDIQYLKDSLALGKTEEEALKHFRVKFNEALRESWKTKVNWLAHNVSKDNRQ
T2 sequence (P27986 whole entry partner): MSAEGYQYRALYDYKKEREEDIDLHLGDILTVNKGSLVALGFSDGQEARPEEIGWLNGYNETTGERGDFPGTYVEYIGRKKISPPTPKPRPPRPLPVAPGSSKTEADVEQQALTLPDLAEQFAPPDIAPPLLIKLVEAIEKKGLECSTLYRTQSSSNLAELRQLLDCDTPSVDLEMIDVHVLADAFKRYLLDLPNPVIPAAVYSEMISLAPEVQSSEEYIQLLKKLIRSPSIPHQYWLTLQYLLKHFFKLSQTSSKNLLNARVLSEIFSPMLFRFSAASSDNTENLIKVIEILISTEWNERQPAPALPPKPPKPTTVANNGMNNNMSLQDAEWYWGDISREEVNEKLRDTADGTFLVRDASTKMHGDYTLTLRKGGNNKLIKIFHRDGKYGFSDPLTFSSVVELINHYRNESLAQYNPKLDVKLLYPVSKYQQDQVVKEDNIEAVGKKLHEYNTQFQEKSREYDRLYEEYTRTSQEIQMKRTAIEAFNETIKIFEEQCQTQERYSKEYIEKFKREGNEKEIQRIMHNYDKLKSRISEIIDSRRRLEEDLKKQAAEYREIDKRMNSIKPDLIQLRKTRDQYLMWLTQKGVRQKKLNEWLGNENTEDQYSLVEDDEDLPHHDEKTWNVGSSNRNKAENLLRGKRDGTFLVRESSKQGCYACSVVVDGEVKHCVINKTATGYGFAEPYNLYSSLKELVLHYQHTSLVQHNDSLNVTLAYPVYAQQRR
Procedure: (§3) PI3Kδ catalyzes a phosphotransfer from γ-[^32P]ATP to PIP2/PS liposomes at the D3′ position of the PIP2 lipid inositol ring. This reaction is MgCl2 dependent and is quenched in high molarity potassium phosphate buffer pH 8.0 containing 30 mM EDTA. […] The reaction products (and all unlabelled products) are transferred to a 96-well, prewetted PVDF filter plate, filtered, and washed in high molarity potassium phosphate. Scintillant is added to the dried wells and the incorporated radioactivity is quantitated.
(§4) This dilution established a final concentration of 200 μM ATP in the reaction volume. The reaction was stopped with 150 μL quench buffer (1.0 M potassium phosphate pH 8.0, 30 mM EDTA). A portion of the quenched solution (180 μL) was then transferred to a PVDF filter plate (Millipore # MAIP NOB prewetted with sequential 200 μL washes of 100% methanol, water, and finally 1.0 M potassium phosphate pH 8.0 wash buffer).
(§5) The PVDF filter plate was aspirated under moderate vacuum (2-5 mm Hg), washed with 5×200 μL of wash buffer, and then dried by aspiration. The filter was subsequently blotted, allowed to air dry completely, and inserted into a Wallac counting cassette with 50 μL of Ecoscint scintillation cocktail added per well.
(§6) Subsequent selectivity assays were done similarly using the same 3× substrate stocks except they contained 0.05 mCi/mL γ[^32P]ATP and 3 mM PIP2. Subsequent selectivity assays also used the same 3× enzyme stocks, except they now contained 3 nM of any given PI3K isoform.
(§7) For all selectivity assays, the test compounds were weighed out and dissolved into 10-50 mM stocks in 100% DMSO (depending on their respective solubilities) and stored at −20° C. […] From these dilutions, 20 μL was added into the assay wells alongside water blanks used for the enzyme (positive) control and the no enzyme (background) control.
(§8) This selectivity protocol is identical to that described above, except the 3× stock ATP concentration was 600 μM.

[4] = system: basophils; assay: Basophil histamine release assay; type: cell-based, human
Procedure: Assessment of the effect of a compound of the invention on basophil function was tested using a conventional histamine release assay, generally in accordance with the method described in Miura et al., J Immunol, 162:4198-206 (1999). Briefly, enriched basophils were preincubated with test compounds at several concentrations from 0.1 nM to 1,000 nM, for 10 min at 37° C. Then, polyclonal goat antihuman IgE (0.1 μg/mL) or fMLP was added, and allowed to incubate for an additional 30 min. Histamine released into the supernatant was measured using an automated fluorometric technique. Two compounds were tested, shown below.

[5] = system: Murine splenocytes (Balb/c); assay: B cell proliferation in response to cell surface IgM stimulation; type: cell-based; conditions: Mus musculus, Splenocyte; stimulated B cell proliferation; read-out: Mouse BCR Stim (EC50)
Outline: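 Balb/c splenocytes (2×10^5/well, 10% FBS/RPMI) preincubated 30-60 min with inhibitor, then stimulated with goat F(ab′)2 anti-mouse IgM μ-chain at 25 μg/mL final. Cultured 3 days at 37° C., [^3H]-thymidine pulsed for final 4 h; incorporation counted as CPM. Values are EC50 (μM).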

[6] = system: human neutrophils; assay: fMLP-induced human neutrophil migration; type: cell-based; conditions: neutrophil (PMN) migration, read-out: Human PMN Migration (EC50)
Procedure: Neutrophils have the intrinsic capacity to migrate through tissues, and are one of the first cell types to arrive at the sites of inflammation or tissue injury. The effect of D-000 on neutrophil migration towards a concentration gradient of fMLP was measured. The day before the migration assays were performed, 6-well plates were coated with recombinant ICAM-1/Fc fusion protein (Van der Vieren et al., Immunity, 3:683-690 (1995)) (25 μg/mL in bicarbonate buffer, pH 9.3) and left overnight at 4° C. After washing, 1% agarose solution, in RPMI-1640 with 0.5% bovine serum albumin (BSA), was added to wells with or without an inhibitor, and plates were placed into a refrigerator before punching holes in the gelled agarose to create plaques (1 central hole surrounded by 6 peripheral ones per well).
Human neutrophils were obtained as described above, and resuspended in RPMI medium supplemented with 0.5% BSA at 5×10^6 cells/mL. After combining equal volumes of neutrophil suspension and medium (either with DMSO or a serial dilution of the test compound in DMSO), neutrophils were aliquoted into the peripheral holes, while the central hole received fMLP (5 μM). Plates were incubated at 37° C. in the presence of 5% CO2 for 4 hr, followed by termination of migration by the addition of 1% glutaraldehyde solution in D-PBS. After removing the agarose layer, wells were washed with distilled water and dried.
Analysis of neutrophil migration was conducted on a Nikon DIAPHOT® inverted microscope (1× objective) video workstation using the NIH 1.61 program. Using Microsoft Excel and Table Curve 4 (SSPS Inc., Chicago Ill.) programs, a migration index was obtained for each of the studied conditions. Migration index was defined as the area under a curve representing number of migrated neutrophils versus the net distance of migration per cell.
Using the methods described in Examples 3-5, above, compounds of the invention were tested for inhibitory activity and potency in assays of stimulated B and T cell proliferation, neutrophil (PMN) migration, and neutrophil (PMN) elastase release. In Table 4, the values shown are effective concentrations of the compound (EC50; μM). Where no value is given, no assay was performed.

[7] = biological target: T2, PI3Kδ; assay: Biochemical assay of PI3K potency and selectivity using 20 μM ATP, Delta; design: His tag (pFastbac HTb vector) (N); FLAG; made in house; host or cells: Sf21 insect cells (baculovirus)
Outline: (§1)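 Radioactive phosphate transfer from γ-[32P]ATP onto PIP2/PS liposomes was measured in 20 mM HEPES, pH 7.4, at 20 μM ATP. The 3× substrate stock contained […] and 6 μM PIP2/PS.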

[8] = system: T cell proliferation; assay: Stimulated T cell proliferation (Mouse TCE Stim, Table 4); type: cell-based; conditions: read-out: Mouse TCE Stim (EC50)
[9] = biological target: T1, PI3Kγ; assay: Biochemical assay of PI3K potency and selectivity using 20 μM ATP, Gamma
Excerpt: Recombinant baculoviruses containing the above clones were generated using manufacturer's recommended protocol (Life Technologies). Baculoviruses expressing His-tagged p110α, p110γ, or p110δ catalytic subunit and p85 subunit were coinfected into Sf21 insect cells. To enrich the heterodimeric enzyme complex, an excess amount of baculovirus expressing p85 subunit was infected, and the His-tagged p110 catalytic subunit complexed with p85 was purified on nickel affinity column. […] In an alternate approach, p101 can be cloned into baculovirus, to permit coexpression with its preferred binding partner p110γ. […]

[10] = biological target: T3, PI3Kβ (Homo sapiens, UniProt P42338); assay: Biochemical assay using 200 μM ATP, Beta
T3 construct: His tag (pFastbac HTa vector) (N); FLAG (N); made in house; host or cells: Sf21 insect cells (baculovirus)
T3 sequence (P42338 whole entry): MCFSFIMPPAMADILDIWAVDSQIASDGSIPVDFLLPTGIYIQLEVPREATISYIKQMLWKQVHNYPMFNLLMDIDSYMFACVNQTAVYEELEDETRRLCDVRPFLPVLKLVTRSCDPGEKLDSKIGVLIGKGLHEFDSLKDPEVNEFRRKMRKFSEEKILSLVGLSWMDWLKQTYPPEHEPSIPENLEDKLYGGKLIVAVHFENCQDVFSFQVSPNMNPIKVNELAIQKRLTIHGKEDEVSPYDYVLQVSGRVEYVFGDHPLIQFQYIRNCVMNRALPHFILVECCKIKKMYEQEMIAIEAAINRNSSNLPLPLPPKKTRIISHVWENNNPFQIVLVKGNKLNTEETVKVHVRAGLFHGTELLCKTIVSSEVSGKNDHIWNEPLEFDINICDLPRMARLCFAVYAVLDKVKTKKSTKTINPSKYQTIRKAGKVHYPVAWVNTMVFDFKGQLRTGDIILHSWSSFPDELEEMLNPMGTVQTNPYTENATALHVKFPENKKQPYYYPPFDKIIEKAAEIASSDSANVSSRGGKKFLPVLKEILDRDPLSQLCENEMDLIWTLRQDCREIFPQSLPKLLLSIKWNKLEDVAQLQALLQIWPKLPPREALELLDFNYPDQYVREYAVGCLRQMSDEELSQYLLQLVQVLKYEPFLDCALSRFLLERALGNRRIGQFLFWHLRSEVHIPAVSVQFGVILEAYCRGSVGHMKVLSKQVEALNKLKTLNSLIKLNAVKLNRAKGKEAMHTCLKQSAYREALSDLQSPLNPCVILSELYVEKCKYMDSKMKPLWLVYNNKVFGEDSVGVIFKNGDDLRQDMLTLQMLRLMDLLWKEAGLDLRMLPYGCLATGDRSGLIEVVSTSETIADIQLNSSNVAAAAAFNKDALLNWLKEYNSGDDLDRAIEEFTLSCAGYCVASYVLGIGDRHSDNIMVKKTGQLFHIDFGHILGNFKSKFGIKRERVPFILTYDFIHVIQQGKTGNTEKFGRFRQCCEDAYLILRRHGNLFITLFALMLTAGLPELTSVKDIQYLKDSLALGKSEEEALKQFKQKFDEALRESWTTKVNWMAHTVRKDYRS
T3 sequence (P27986 whole entry partner): as the sequence (P27986 whole entry partner) above
Procedure: as §3, §4, §5, §6, §7, §8

[11] = biological target: T4, PI3Kα (Homo sapiens, UniProt P42336); assay: Biochemical assay using 200 μM ATP, Alpha
T4 construct: His tag (pFastbac HTb vector) (N); FLAG; made in house; host or cells: Sf21 insect cells (baculovirus)
T4 sequence (P42336 whole entry): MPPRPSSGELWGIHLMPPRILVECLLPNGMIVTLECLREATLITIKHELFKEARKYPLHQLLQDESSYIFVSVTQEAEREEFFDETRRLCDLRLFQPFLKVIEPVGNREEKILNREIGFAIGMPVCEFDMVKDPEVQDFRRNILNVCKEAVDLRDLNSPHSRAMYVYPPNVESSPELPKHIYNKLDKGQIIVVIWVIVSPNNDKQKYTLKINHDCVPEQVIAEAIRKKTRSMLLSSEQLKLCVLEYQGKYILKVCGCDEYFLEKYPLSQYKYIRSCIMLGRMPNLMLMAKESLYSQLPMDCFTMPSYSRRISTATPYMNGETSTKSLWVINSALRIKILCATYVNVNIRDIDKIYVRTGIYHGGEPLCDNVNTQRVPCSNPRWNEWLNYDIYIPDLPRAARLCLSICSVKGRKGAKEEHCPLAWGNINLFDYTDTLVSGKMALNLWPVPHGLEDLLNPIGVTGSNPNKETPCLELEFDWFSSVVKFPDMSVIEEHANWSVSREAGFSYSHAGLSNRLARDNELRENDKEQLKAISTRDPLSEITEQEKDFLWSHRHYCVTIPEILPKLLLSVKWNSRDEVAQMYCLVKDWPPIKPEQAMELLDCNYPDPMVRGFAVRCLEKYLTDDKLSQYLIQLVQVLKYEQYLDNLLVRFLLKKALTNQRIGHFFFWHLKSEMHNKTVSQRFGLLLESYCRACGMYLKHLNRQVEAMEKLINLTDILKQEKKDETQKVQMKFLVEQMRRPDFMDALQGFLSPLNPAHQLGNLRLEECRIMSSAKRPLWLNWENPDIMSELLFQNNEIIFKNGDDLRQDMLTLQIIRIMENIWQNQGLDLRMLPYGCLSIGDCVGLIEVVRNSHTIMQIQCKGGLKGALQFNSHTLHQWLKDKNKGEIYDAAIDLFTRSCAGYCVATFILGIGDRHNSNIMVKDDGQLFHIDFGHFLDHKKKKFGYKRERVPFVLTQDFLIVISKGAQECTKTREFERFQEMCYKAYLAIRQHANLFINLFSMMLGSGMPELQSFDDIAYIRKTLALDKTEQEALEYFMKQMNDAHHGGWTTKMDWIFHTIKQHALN
T4 sequence (P27986 whole entry partner): as the sequence (P27986 whole entry partner) above
Procedure: as §3, §4, §5, §6, §7, §8

[12] = biological target: T3, PI3Kβ; assay: Biochemical assay of PI3K potency and selectivity using 20 μM ATP, Beta; conditions: 20 μM ATP; for Beta/Delta Ratio: ratio of IC50 values, > = hypothetical ratio with 100 μM substituted for the missing IC50; for IC50: read-out: Beta IC50
Outline: as §1

[13] = biological target: T4, PI3Kα; assay: Biochemical assay of PI3K potency and selectivity using 20 μM ATP, Alpha; conditions: for Alpha/Delta Ratio: ratio of IC50 values, > = hypothetical ratio with 100 μM substituted for the missing IC50; for remaining activity at 100 µM: read-out: percent activity remaining at 100 μM, 20 μM ATP, 100 μM compound did not inhibit by at least 50%
Outline: as §1

[14] = system: mouse; assay: Mouse air pouch, TNF-α challenge, elastase exocytosis in lavage; type: in vivo; conditions: 32 mg/kg in LABRAFIL one hour before and two hours after TNF-α, FIG. 9
[15] = Levels of D-030 in circulation (air pouch test); type: in vivo; conditions: rat, blood, po; rats, 100 mg/kg in PEG 400 orally, twelve hours following dosing; read-out: Average compound in circulation
Procedure: (§2) The test was performed as follows: on day zero, groups of rats were shaved and 10 ml of air was injected subcutaneously on the back of each, forming a pouch. On day three, 10 ml of air was reinjected. […] Six hours following dosing, the air pouches of both groups received 2.5 ng of TNF. Twelve hours following dosing, the pouches were washed with saline, and the resulting lavage fluid was analyzed for leukocyte counts and neutrophil elastase activity. In addition, blood was drawn to determine the levels of D-030 in circulation. […] Reductions in specific leukocyte counts were as follows: neutrophils (90%), eosinophils (66%), and lymphocytes (70%).

[16] = system: rats; assay: Six-day air pouch model, TNF challenge, leukocyte counts and neutrophil elastase in lavage fluid; type: in vivo, rat; conditions: 100 mg/kg orally, TNF 2.5 ng
Procedure: The six-day air pouch model is an in vivo inflammation model that histologically resembles a joint synovium. A lining of organized mononuclear cells and fibroblasts develops that closely resembles a synovial cavity. The model represents an “acute” model of a chronic disease (e.g., rheumatoid arthritis). This model allows for the in vivo evaluation of agents to block cellular influx into the air pouch under the influence of an inflammatory stimulus.
as §2

[17] = system: osteoclasts; assay: Osteoclast function, pit depths on dentine slices; type: cell-based, mouse; conditions: inhibitor 100 nM + osteopontin (OPN) 25 μg/mL, 72 hr; two experiments; OPN alone 10 ± 0.5 and 9 ± 0.4
Procedure: To analyze the effect of the PI3Kδ inhibitor D-000 on osteoclasts, mouse bone marrow cells were isolated and differentiated them to osteoclasts by treating the cells with Macrophage Colony Stimulating Factor^−1 (mCSF^−1) and Osteoprotegerin Ligand (OPGL) in serum-containing medium (αMEM with 10% heat-inactivated FBS; Sigma) for 3 days. On day four, when the osteoclasts had developed, the medium was removed and cells were harvested. The osteoclasts were plated on dentine slices at 10^5 cells/well in growth medium, i.e., αMEM containing 1% serum and 2% BSA with […] and 10 ng/mL mCSF-1. After 3 hr, the medium was changed to 1% serum and 1% BSA, with or without osteopontin (25 μg/mL) and the PI3K inhibitors (100 nM). The medium was changed every 24 hours with fresh osteopontin and the inhibitors. At 72 hr, the medium was removed, and the dentine surfaces were washed with water to remove cell debris and stained with acid hematoxylin. Excess stain was washed and the pit depths were quantitated using confocal microscopy.

[18] = 20 μM ATP, read-out: Delta IC50
[19] = stimulated T cell proliferation

T1 sequence (P48736 whole entry): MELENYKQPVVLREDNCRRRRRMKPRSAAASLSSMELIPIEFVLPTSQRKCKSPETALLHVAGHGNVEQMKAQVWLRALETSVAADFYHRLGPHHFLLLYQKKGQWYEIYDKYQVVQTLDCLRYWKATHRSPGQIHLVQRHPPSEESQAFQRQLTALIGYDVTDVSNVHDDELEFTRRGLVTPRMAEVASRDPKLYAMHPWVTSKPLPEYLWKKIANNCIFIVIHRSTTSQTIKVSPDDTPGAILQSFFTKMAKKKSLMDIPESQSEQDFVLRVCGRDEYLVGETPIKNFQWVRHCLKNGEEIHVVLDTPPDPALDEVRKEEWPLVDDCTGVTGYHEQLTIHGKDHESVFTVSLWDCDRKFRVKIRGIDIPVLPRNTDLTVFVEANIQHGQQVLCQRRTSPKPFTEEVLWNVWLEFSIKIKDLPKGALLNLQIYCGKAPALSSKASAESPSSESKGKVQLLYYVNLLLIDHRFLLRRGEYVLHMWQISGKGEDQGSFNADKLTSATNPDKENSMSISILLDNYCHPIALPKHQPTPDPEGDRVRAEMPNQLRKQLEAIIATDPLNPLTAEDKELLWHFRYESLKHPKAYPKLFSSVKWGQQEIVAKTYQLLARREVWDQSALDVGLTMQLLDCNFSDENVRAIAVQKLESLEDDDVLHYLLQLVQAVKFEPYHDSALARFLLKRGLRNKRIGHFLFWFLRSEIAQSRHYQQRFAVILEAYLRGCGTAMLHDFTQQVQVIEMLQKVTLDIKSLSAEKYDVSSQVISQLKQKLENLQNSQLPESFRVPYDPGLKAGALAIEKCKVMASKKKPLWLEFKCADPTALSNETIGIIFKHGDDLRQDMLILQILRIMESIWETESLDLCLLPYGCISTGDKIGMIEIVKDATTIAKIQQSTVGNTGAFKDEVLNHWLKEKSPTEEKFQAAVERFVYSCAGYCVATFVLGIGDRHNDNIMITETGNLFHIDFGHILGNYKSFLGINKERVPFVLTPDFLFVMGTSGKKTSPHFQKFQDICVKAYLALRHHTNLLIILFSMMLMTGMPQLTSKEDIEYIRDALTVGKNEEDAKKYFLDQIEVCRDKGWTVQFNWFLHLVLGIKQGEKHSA

| SMILES | IC50 [1] [nM] | EC50 [2] [nM] | IC50 [3] [nM] | EC50 [5] [nM] | EC50 [6] [nM] | IC50 [7, 18] [nM] | Beta/Delta Ratio [10] | Gamma/Delta Ratio [1] | Alpha/Delta Ratio [11] | Beta/Delta Ratio [12] | EC50 [8, 19] [nM] | Alpha/Delta Ratio ([13]; 20 μM ATP) | further results |
| --- | --- | --- | --- | --- | --- | --- | --- | --- | --- | --- | --- | --- | --- |
| Cc1cccc2nc(CSc3ncnc4[nH]cnc34)n(-c3ccccc3Cl)c(=O)c12 [Compound D-026, 3-(2-Chlorophenyl)-5-methyl-2-(9H-purin-6-ylsulfanylmethyl)-3H-quinazolin-4-one] | 13000 ± 10000 | 200 ± 200 | 380 ± 200 | 300 ± 100 | 300 ± 300 | 80 |  |  |  |  |  |  | melting point: 227.8 to 230.1 °C (dec.); EC50 ([4]; Homo sapiens, read-out: EC50, suppression of histamine release): ~25 nM; Suppression of histamine release ([4]; anti-IgE, at 1,000 nM): ~100%; Effect on histamine release, basophils stimulated with fMLP ([4]; fMLP stimulus): Neither compound elicited any effect; EC50 ([8]; T-cell): 3500 nM; IC50 [9]: 1700 nM |
| Cc1cccc2nc(Cn3cnc4c(N)ncnc43)n(-c3ccccc3C(C)C)c(=O)c12 [Compound D-029, 2-(6-Aminopurin-9-ylmethyl)-3-(2-isopropylphenyl)-5-methyl-3H-quinazolin-4-one] | 13000 ± 700 | 500 ± 600 | 340 ± 80 | 100 ± 30 | 300 | 60 | 101 | 37 | 653 | 54 | 3400 ± 2000 | 882 | IC50 [10]: 34000 ± 4000 nM; melting point: 258 to 258.2 °C; IC50 [12]: 3000 nM; IC50 ([13]; 20 μM ATP, read-out: Alpha IC50): 49000 nM |
| Cc1ccccc1-n1c(Cn2cnc3c(N)ncnc32)nc2cccc(C)c2c1=O [Compound D-030, 2-(6-Aminopurin-9-ylmethyl)-5-methyl-3-o-tolyl-3H-quinazolin-4-one] |  | 400 ± 500 |  | 100 ± 100 | 200 |  |  |  |  |  | 6000 |  | Elastase activity in the air pouch lavages of TNF challenged animals [14]: significant decrease; concentration at 12 h [15]: 8.7 µM; Reduction in eosinophils count in lavage fluid [16]: 66%; Reduction in lymphocytes count in lavage fluid [16]: 70%; Reduction in neutrophils count in lavage fluid [16]: 90%; Reduction in total leukocytes in the lavage fluid compared to vehicle controls [16]: 82%; Reduction of neutrophil elastase levels versus vehicle controls [16]: 15% |
| COc1ccccc1-n1c(CSc2ncnc3[nH]cnc23)nc2ccccc2c1=O [Compound D-036, 3-(2-methoxyphenyl)-2-(9H-purin-6-ylsulfanylmethyl)-3H-quinazolin-4-one] | 72000 | 5500 ± 5000 | 4100 | 900 ± 40 | 200 |  | 36 | 18 | 48 | 69 | 4100 | >226 | remaining activity at 100 µM [13]: 63% |
| O=c1c2ccccc2nc(CSc2ncnc3[nH]cnc23)n1Cc1ccccc1 [Compound D-037, 3-benzyl-2-(9H-purin-6-ylsulfanylmethyl)-3H-quinazolin-4-one] | 45000 | 1300 ± 400 | 3500 | 1200 ± 400 | 2000 | 800 | 33 | 13 | 64 | 100 |  | >125 | IC50 [12]: 80000 nM; remaining activity at 100 µM [13]: 64% |
| O=c1cc(N2CCOCC2)oc2c(-c3ccccc3)cccc12 [LY294002, reference compound] |  |  | 2100 ± 1500 | 900 ± 500 |  | 230 |  |  |  |  |  |  | Pit depths (osteoclast activity), Table 1 [17]: 4.6 ± 0.22 and 5.8 ± 0.5; inhibition at 10 µM ([4]; Homo sapiens, at the highest concentration, 10,000 nM): ~100%; IC50 ([7]; Example 2 assay conditions, read-out: IC50, δ isoform of PI3K (FIG. 1)): 300 to 1000 nM |
| COC[C@H]1OC(=O)c2coc3c2[C@@]1(C)C1=C(C3=O)[C@@H]2CCC(=O)[C@@]2(C)C[C@H]1OC(C)=O [Wortmannin, wortmannin] |  |  |  |  |  |  |  |  |  |  |  |  | Pit depths (osteoclast activity), Table 1 [17]: 5.7 ± 0.6 and 5 ± 0.5 |

— patent US20200061062A1, “INHIBITORS OF HUMAN PHOSPHATIDYLINOSITOL 3-KINASE DELTA” (ICOS Corporation, priority 2000, published 2020)
